# Test system: panel of cancer cell lines
# Test: Cell viability (CellTiter-Glo) dose-response across cancer cell line panel;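 on EC50: after 72 h compound incubation with CellTiter-Glo ATP readout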
# Type: cell-based, human
# Details: for EC50: Homo sapiens
# Description: Next, we explored the effect of CSN5 inhibition on the viability of cancer cells. To obtain a comprehensive picture, we generated dose–response curves with a CSN5 inhibitor across more than 500 cancer cell lines in a previously described standardized setting[47] (Supplementary Data 1).
# A standardized CellTiter-Glo Assay (Promega #G7570) based on the quantification of ATP was applied according to the manufacturer's protocol to measure the amount of viable cells in culture. In brief, cells were seeded into 384-well plates at optimal density for each cell line. After 4 h, compounds were added at different concentrations in growth medium and incubated for another 72 h in a humidifying chamber at 37 °C and 5% CO2. […] EC50 values were calculated from the plot of percentage of inhibition versus inhibitor concentration using the nonlinear regression analysis software Origin 7.5SR6 (OriginLab Corp.).
smiles,measurement,setting,value
NS(=O)(=O)OC[C@@H]1C[C@@H](n2ccc3c(N[C@H]4CCc5ccccc54)ncnc32)C[C@@H]1O [MLN4924],AMAX,A4/Fuk,-96.9287
same,AMAX,A101D,-92.8172
same,AMAX,A549,-65.6237
same,AMAX,A-704,-78.0973
same,AMAX,AM-38,-93.2889
same,AMAX,AU565,-66.5254
same,AMAX,AsPC-1,-50.1525
same,AMAX,BFTC-909,-84.6841
same,AMAX,BHY,-77.3535
same,AMAX,BICR 6,-87.6265
same,AMAX,BICR 16,-96.2639
same,AMAX,C32,-75.1217
same,AMAX,COLO 201,-80.4634
same,AMAX,Caki-1,-69.6053
same,AMAX,FaDu,-85.8426
same,AMAX,GP2d,-76.2986
same,AMAX,HARA,-86.2104
same,AMAX,HCC1143,-80.6145
same,AMAX,HCC-15,-95.7573
same,AMAX,HD-MY-Z,-88.7975
same,AMAX,HEC-151,-95.1252
same,AMAX,HEL,-97.9201
same,AMAX,HLC-1,-88.3206
same,AMAX,HLF,-88.8149
same,AMAX,HSC-4,-89.1597
same,AMAX,Hep3B,-41.8233
same,EC50,59M,631 nM
same,EC50,92.1,213 nM
same,EC50,639-V,191 nM
same,EC50,697,373 nM
same,EC50,769-P,199 nM
same,EC50,"786-0, 786-O",373 nM
same,EC50,"1321-N1, 1321N1",304 nM
same,EC50,8505C,271 nM
same,EC50,A4/Fuk,340 nM
same,EC50,A101D,403 nM
same,EC50,"A 172, A172",180 nM
same,EC50,"A204, A-204",267 nM
same,EC50,"A498, A-498",245 nM
same,EC50,"A549, A549",3600 nM
same,EC50,"A673, A-673",88.1 nM
same,EC50,"A704, A-704",622 nM
same,EC50,"A2058, A2058",316 nM
same,EC50,"A2780, A2780",330 nM
same,EC50,"A-375, A-375",281 nM
same,EC50,"ACC-MESO-1, ACC-MESO-1",1560 nM
same,EC50,"AM-38, AM-38",297 nM
same,EC50,AML-193,901 nM
same,EC50,"AN3-CA, AN3 CA",309 nM
same,EC50,"AU565, AU565",505 nM
same,EC50,BC-3C,1970 nM
same,EC50,BEN,1100 nM
same,EC50,"BFTC-909, BFTC-909",650 nM
same,EC50,BHY,1870 nM
same,EC50,BICR 6,181 nM
same,EC50,BICR 16,220 nM
same,EC50,BICR 18,11500 nM
same,EC50,BICR 31,156 nM
same,EC50,"BT-16, BT-16",98 nM
same,EC50,"BT-474, BT-474",871 nM
same,EC50,"BT-549, BT-549",382 nM
same,EC50,"BXPC-3, BxPC-3",530 nM
same,EC50,C3A,> 30000 nM
same,EC50,"C32, C32",1140 nM
same,EC50,"CAKI-1, Caki-1",327 nM
same,EC50,"CAKI-2, Caki-2",2360 nM
same,EC50,CAL-12T,1210 nM
same,EC50,"CAL-27, CAL 27",161 nM
same,EC50,CAL-29,283 nM
same,EC50,"CAL-54, CAL-54",772 nM
same,EC50,"CAL-85-1, CAL-85-1",144 nM
same,EC50,"CAL-120, CAL-120",154 nM
same,EC50,"CAL-148, CAL-148",> 30000 nM
same,EC50,"CAMA-1, CAMA-1",94.3 nM
same,EC50,"CAPAN-1, Capan-1",301 nM
same,EC50,CAS-1,14000 nM
same,EC50,"CCRF-HSB-2, CCRF-HSB-2",296 nM
same,EC50,"CEM/C1, CEMC1",257 nM
same,EC50,"CFPAC-1, CFPAC-1",703 nM
same,EC50,CL-34,89.6 nM
same,EC50,CMK,138 nM
same,EC50,"CMK-86, CMK-86",230 nM
same,EC50,"COLO 201, COLO 201",268 nM
same,EC50,"COLO 205, COLO 205",268 nM
same,EC50,"COLO 320, COLO-320",883 nM
same,EC50,"COLO 699, COLO-699",890 nM
same,EC50,"COLO 704, COLO-704",384 nM
same,EC50,"COLO-678, COLO-678",4890 nM
same,EC50,"COLO-679, COLO-679",133 nM
same,EC50,"COLO-741, COLO 741",130 nM
same,EC50,"COLO-829, COLO 829",319 nM
same,EC50,"COR-L23, COR-L23",1660 nM
same,EC50,"COR-L47, COR-L47",49.6 nM
same,EC50,"COR-L105, COR-L105",469 nM
same,EC50,"COV362, COV362",175 nM
same,EC50,COV644,23600 nM
same,EC50,"CW-2, CW-2",6310 nM
same,EC50,"Calu-1, Calu-1",2340 nM
same,EC50,"Calu-6, Calu-6",294 nM
same,EC50,"ChaGo-K-1, ChaGo-K-1",778 nM
same,EC50,"Ci-1, CI-1",28.2 nM
same,EC50,DAN-G,4140 nM
same,EC50,DB,732 nM
same,EC50,"DLD-1, DLD-1",641 nM
same,EC50,"DMS-53, DMS 53",22800 nM
same,EC50,"DMS-153, DMS 153",42.9 nM
same,EC50,"DMS-273, DMS 273",958 nM
same,EC50,"DND41, DND-41",513 nM
same,EC50,"DU-4475, DU4475",99.4 nM
same,EC50,Daoy,240 nM
same,EC50,"Detroit 562, Detroit 562",478 nM
same,EC50,"EBC-1, EBC-1",341 nM
same,EC50,"EFM-19, EFM-19",1390 nM
same,EC50,"EOL1, EOL-1",65.3 nM
same,EC50,FaDu,231 nM
same,EC50,"G-401, G-401",1550 nM
same,EC50,"G-402, G-402",811 nM
same,EC50,GAMG,373 nM
same,EC50,"GB-1, GB-1",479 nM
same,EC50,"GDM-1, GDM-1",188 nM
same,EC50,"GI-1, GI-1",207 nM
same,EC50,GP2d,759 nM
same,EC50,"Granta-519, GRANTA-519",117 nM
same,EC50,H4,229 nM
same,EC50,HARA,640 nM
same,EC50,"HCC15, HCC-15",414 nM
same,EC50,"HCC44, HCC-44",167 nM
same,EC50,"HCC70, HCC70",390 nM
same,EC50,"HCC78, HCC-78",183 nM
same,EC50,"HCC95, HCC-95",105 nM
same,EC50,"HCC827, HCC827",7720 nM
same,EC50,"HCC1143, HCC1143",1670 nM
same,EC50,"HCC1187, HCC1187",348 nM
same,EC50,"HCC1500, HCC1500",6580 nM
same,EC50,"HCC1588, HCC-1588",1370 nM
same,EC50,"HCC1806, HCC1806",70.1 nM
same,EC50,"HCC1954, HCC1954",417 nM
same,EC50,"HCC4006, HCC4006",1530 nM
same,EC50,HCC-56,2460 nM
same,EC50,HCC-1359,375 nM
same,EC50,HCC-1833,2350 nM
same,EC50,"HCT-15, HCT-15",934 nM
same,EC50,HD-MY-Z,124 nM
same,EC50,HEC-50B,961 nM
same,EC50,HEC-151,225 nM

# — publication PMC5078989, “Targeted inhibition of the COP9 signalosome for treatment of cancer” (Nature Communications, 2016)
